Assay results: paper PMC9409361, “EsigGOBP1: The Key Protein Binding Alpha-Phellandrene in Endoclita signifer Larvae” (International Journal of Molecular Sciences, 2022)
Entries after “also recorded” stand apart in the source; their conditions may differ. Like-named read-outs stand apart in the source and are kept apart here.

Columns and labels:
[1] = tested on: EsigGOBP1 expression in the head of E. signifer larvae; test: qRT-PCR expression of EsigGOBP1 in larval heads after exposure to volatiles; type: in vivo, Endoclita signifer
Description: The 3rd and 5th instar larvae of E. signifer were exposed to 12 GC-EAD active volatile compounds (Table S1). The exposure method followed that of Llopis-Gimenez and Hu. Thirty-three 5th instar larvae were exposed to ten compounds and only methanol (control) with three biological replicates (50 μL of each odorant diluted to 10 g/L in methanol in a 50 mL jar for 24 h). Thereafter, the total RNA from the heads of these larvae were extracted and its concentration and purity measured. The residual genomic DNA in the total RNA was removed using DNase I (Thermo Scientific, Waltham, MA, USA) then purified RNA used to synthesize cDNA following the method of Zhang. The treatments carried out on the 5th instar larvae, were the same as applied to 3rd instar larvae (n = 27) (eight compounds, one control; three biological replicates). The sequence of the gene-specific primers of EsigGOBP1 were as follow: forward primer: 5′-[…]-3′; reverse primer: 5′-[…] TCTCGT-3′ [37]. Roche LIGHT CYCLE 480II (USA) and Genious 2X SYBR Green Fast qPCR Mix (No ROX) (No. RK21205; ABclonal, Wuhan, China) were used for a PCR reaction under a three-step amplification program. Each 20 µL real-time fluorescence quantification PCR (qRT-PCR) reaction mixture contained 10 µL of Genious 2X SYBR Green Fast qPCR Mix, […] ([…]), 2 µL of sample cDNA (2.5 ng of RNA), and […] of dH2O (sterile distilled water), with the following cycling parameters: 95 °C for 180 s, followed by 40 cycles of 95 °C for 5 s, 60 °C for 30 s, and 65 °C to 95 °C in increments of 0.5 °C for 5 s to generate melting curves. The sequences of the primers of the reference gene, GADPH were forward primer 5′-[…]-3′; reverse primer 5′-[…]-3′ [60]. The measurement of the expression of EsigGOBP1 in head, thorax and abdomen of 3rd instar larvae followed the protocol of Zhang. Each qRT-PCR reaction for each volatile exposure and tissues, was performed in three biological replicates and three technical replicates in Roche LIGHT CYCLE 480II. The expression of EsigGOBP1, from exposure to o-cymene and camphene served as the control for the 3rd and 5th instar larvae, respectively, and GADPH was used to measure the relative gene expressions by the 2^−ΔΔCT method. The 2^−ΔCT method was used to measure gene expressions in the tissues of 3rd instar larvae with 0.91 amplicons efficiencies. Differences in the expression of olfactory proteins were determined using a one-sample t-test. All analyses were implemented in SPSS Statistics 18.0, and values are presented as means ± SE.

recombinant EsigGOBP1 = test: Fluorescence competition binding assay (FCBA) with 1-NPN probe; parameters: species or system Endoclita signifer; conditions: for binding affinities for EsigGOBP1 (in words): FCBA, ordered by Kd values; for Ki: calculated from IC50: Ki = [IC50]/(1 + [1-NPN]/K1-NPN); for IC50: competitive binding, 1-NPN and EsigGOBP1 both at 2 μM, ligands 2–24 μM, pH 7.4
Description: N-phenyl-1-naphthylamine (1-NPN) was selected for use as a selectively fluorescent probe to measure the affinity of ligand binding to recombinant EsigGOBP1 [20, 42]. Twelve volatiles (Table 1) from eucalyptus trunks and humus soil under eucalyptus plantation were collected, identified and screened using the dynamic headspace adsorption method, gas chromatograph coupled to mass selective detector, gas chromatograph electroantennal detection and Y-tube olfactometer bioassay (Table S1). […] A 2 μM solution of EsigGOBP1 was prepared in 20 mM Tris-HCl buffer (pH 7.4), and the ligands were dissolved in chromatographically pure methanol as 1 mM stock solutions. […] Intensity values corresponding to maximum fluorescence emission were plotted against free ligand concentrations to determine dissociation constants. K1-NPN values were calculated by Scatchard plots to linearize curves.

E. signifer larvae = conditions: cited from earlier work; for attraction in behavior choice assays: ref [33],[34]; for influence on the behaviour of E. signifier: ref [35],[36]
[2] = 3rd instar larvae, 24 h exposure to volatile
[3] = competitive binding against 1-NPN, read-out: calculated Kd
[4] = 5th instar larvae, 24 h exposure to volatile

Row | binding affinities for EsigGOBP1 (in words) (recombinant EsigGOBP1) | Ki (recombinant EsigGOBP1) | Kd (recombinant EsigGOBP1; [3]) | IC50 (recombinant EsigGOBP1) | Structure (SMILES) | EsigGOBP1 expression vs control [1, 2] | other results
1 |  |  |  |  | CC1=CCC2C(C1)C2(C)C (centres unmarked) [3-carene] | downregulated; also recorded: extremely significantly lower | 
2 | high binding affinities | 1.32 µM | 1.32 µM | 10.5 µM | C=C1CCC2CC1C2(C)C (stereo not drawn) [β-Pinene] |  | EsigGOBP1 expression vs control [1, 4]: downregulated; EsigGOBP1 expression vs control ([1]; 5th instar larvae, 24 h exposure to volatile, listed as β-pinene): extremely significantly lower; attraction in behavior choice assays (E. signifer larvae; 5th instar larvae): significantly attracted
3 | high binding affinities |  | 0.99 µM | 7.87 µM | C=C1C2CCC(C2)C1(C)C (centres unmarked) [Camphene] |  | 
4 | high binding affinities | 0.792 µM | 0.79 µM | 6.3 µM | CCc1ccccc1CC [Benzene, 1,2-diethyl-] |  | EsigGOBP1 expression vs control ([1]; 5th instar larvae, 24 h exposure to volatile, 1,2-diethyl-): upregulated; influence on the behaviour of E. signifier (E. signifer larvae): no obvious influence
5 | low binding affinities | 2.69 µM | 2.69 µM | 21.5 µM | c1ccc2ccccc2c1 [Naphthalene] | upregulated | 
6 |  |  |  |  | c1ccc(Nc2cccc3ccccc23)cc1 [1-NPN, N-phenyl-1-naphthylamine, reference compound] |  | Kd (recombinant EsigGOBP1; binding curve and Scatchard plots, 1-NPN 2–24 μM, 2 μM EsigGOBP1, read-out: dissociation constant K1-NPN): 3.38 µM
7 | high binding affinities | 1.24 µM | 1.24 µM | 9.86 µM | CC1=CCC2CC1C2(C)C (stereo not drawn) [alpha-Pinene] |  | 
8 |  |  |  |  | Cc1ccccc1C(C)C [o-cymene] | downregulated; also recorded: extremely significantly lower | EsigGOBP1 expression vs control [1, 4]: upregulated; attraction in behavior choice assays (E. signifer larvae; 3rd instar larvae): significantly attracted
9 | high binding affinities | 1.43 µM | 1.43 µM | 11.4 µM | C=C(C)[C@H]1CC=C(C)CC1 [D-limonene] |  | 
10 | high binding affinities | 0.889 µM | 0.89 µM | 7.08 µM | CC1=CC[C@H](C(C)C)C=C1 [alpha-Phellandrene] | downregulated; also recorded: extremely significantly lower | influence on the behaviour of E. signifier (E. signifer larvae): no obvious influence
11 |  |  |  |  | CCc1ccccc1C [benzene, 1-ethyl-2-methyl-] |  | EsigGOBP1 expression vs control [1, 4]: upregulated
12 |  |  |  |  | CCc1ccc(C(C)=O)cc1 [4-ethylacetophenone] | downregulated; also recorded: extremely significantly lower | 

Row | Structure (SMILES) | binding affinities for EsigGOBP1 (in words) (recombinant EsigGOBP1) | Ki (recombinant EsigGOBP1) | Kd (recombinant EsigGOBP1; [3]) | IC50 (recombinant EsigGOBP1) | EsigGOBP1 expression vs control [1, 2] | other results
13 | Cc1cc(C)cc(C)c1 [1,3,5-trimethyl-benzen] | low binding affinities | 4.6 µM | 4.6 µM |  |  | 
14 | CC(C)(O)c1ccccc1 [2-Phenyl-2-propanol] | low binding affinities | 2.77 µM | 2.77 µM | 22 µM |  | 
15 | CC12CCC(CC1)C(C)(C)O2 [Eucalyptol] | high binding affinities | 1.27 µM | 1.27 µM | 10.1 µM | downregulated; also recorded: significantly lower | EsigGOBP1 expression vs control [1, 4]: downregulated; also recorded: significantly lower
16 | C=CC(=O)OCCCC [Butyl acrylate] | high binding affinities | 0.901 µM | 0.9 µM | 7.18 µM |  | 
